Laboratory results as given in patent publication US5155031A, “Use of pervanadate as an inhibitor of phosphotyrosine phosphatase” (priority 1990, dated 1992).
“Also recorded” adds a separate entry of the source. Like-named read-outs stand apart in the source and are kept apart here.

Tests used:
[1] = system: insulin receptor; details: adipocytes, cited from earlier work
[2] = system: rat hepatocyte phosphotyrosine phosphatase; assay: insulin receptor tyrosine dephosphorylation catalyzed by crude phosphotyrosine phosphatase from rat liver microsomes; format: biochemical
Experimental: Since vanadate and pervanadate may have different specificities for various phosphoprotein phosphatases, their inhibitory effects were separated tested on insulin receptor tyrosine dephosphorylation catalyzed by a crude preparation of phosphotyrosine phosphatase activity extracted from rat liver microsomes.
The samples were processed as in example 1, except that after being washed, the immunoprecipitate was incubated with or without 10^-4 M vanadate, 10^-4 M H2 O2 or 10^-4 m pervanadate in the presence or absence of an equal volume, 50 μL, of rat hepatocyte phosphotyrosine phosphatase (as described above) for 20 min at 30° C. with vigorous shaking.

[3] = system: alkaline phosphatase; assay: alkaline phosphatase catalyzed dephosphorylation of the lectin-purified insulin receptor; format: biochemical
Experimental: To do so, lectin-purified insulin receptor (6.0 fmol of insulin binding) was preincubated with 10^-7 M insulin for 60 min at 4° C. Phosphorylation was initiated by addition of [γ^-32 P]ATP, and the insulin receptor was immunoprecipitated by incubating with anti-insulin receptor antibody (140 μg of protein) for 4h at 4° C. followed by incubation with protein A-SEPHAROSE * beads for 1 h at 4° C. The immunoprecipitate was washed twice with 50 mM HEPES buffer, pH 7.6, containing 0.1% TRITON X-100 * detergent and 0.1% SDS and once with the above buffer without SDS. After being washed, the immunoprecipitate was incubated with or without the indicated concentrations of vanadate, H2 O2, or pervanadate in the presence or absence of a 15 units.mL solution of alkaline phosphatase for 60 min at 4° C. with vigorous shaking. This sample was washed twice with 50 mM HEPES buffer, pH 7.6, containing 0.1% TRITON X-100 * detergent and subjected to SDS-PAGE followed by radioautography as shown in FIG. 1. Densitometric scanning of the radioautographs was done with a ZEINER * soft laser scanning densitometer (Model SL-504-XL).

[4] = system: tyrosine kinase; details: cited from earlier work
[5] = target: T1, insulin receptor (Rattus norvegicus, UniProt P15127); assay: Insulin Receptor Autophosphorylation Assay; format: biochemical; details: 10^-3 to 10^-7 M, 15 min, 37° C.; WGA-purified adipocyte insulin receptors
T1 construct: Insulin receptors were solubilized and partially purified by WGA chromatography; endogenous in cells; host or cells: isolated rat adipocytes
T1 sequence (P15127 764-1383 limits assumed): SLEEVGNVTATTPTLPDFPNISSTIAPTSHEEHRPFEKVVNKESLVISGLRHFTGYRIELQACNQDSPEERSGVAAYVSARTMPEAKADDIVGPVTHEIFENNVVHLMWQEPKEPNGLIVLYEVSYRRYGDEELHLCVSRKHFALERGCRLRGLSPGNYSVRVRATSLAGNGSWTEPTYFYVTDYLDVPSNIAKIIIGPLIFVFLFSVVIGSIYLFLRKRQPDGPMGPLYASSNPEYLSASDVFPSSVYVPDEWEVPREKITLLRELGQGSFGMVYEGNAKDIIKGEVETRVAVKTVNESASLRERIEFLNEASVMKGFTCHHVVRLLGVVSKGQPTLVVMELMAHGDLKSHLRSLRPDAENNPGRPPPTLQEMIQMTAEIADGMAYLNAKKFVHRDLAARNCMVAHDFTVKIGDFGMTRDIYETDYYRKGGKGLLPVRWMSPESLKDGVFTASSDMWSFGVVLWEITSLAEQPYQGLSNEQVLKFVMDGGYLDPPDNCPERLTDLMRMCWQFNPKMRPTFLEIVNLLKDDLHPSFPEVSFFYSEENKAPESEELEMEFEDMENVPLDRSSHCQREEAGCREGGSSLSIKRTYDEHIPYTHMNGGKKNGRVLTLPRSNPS
T1 sequence (P15127 27-759 partner limits assumed): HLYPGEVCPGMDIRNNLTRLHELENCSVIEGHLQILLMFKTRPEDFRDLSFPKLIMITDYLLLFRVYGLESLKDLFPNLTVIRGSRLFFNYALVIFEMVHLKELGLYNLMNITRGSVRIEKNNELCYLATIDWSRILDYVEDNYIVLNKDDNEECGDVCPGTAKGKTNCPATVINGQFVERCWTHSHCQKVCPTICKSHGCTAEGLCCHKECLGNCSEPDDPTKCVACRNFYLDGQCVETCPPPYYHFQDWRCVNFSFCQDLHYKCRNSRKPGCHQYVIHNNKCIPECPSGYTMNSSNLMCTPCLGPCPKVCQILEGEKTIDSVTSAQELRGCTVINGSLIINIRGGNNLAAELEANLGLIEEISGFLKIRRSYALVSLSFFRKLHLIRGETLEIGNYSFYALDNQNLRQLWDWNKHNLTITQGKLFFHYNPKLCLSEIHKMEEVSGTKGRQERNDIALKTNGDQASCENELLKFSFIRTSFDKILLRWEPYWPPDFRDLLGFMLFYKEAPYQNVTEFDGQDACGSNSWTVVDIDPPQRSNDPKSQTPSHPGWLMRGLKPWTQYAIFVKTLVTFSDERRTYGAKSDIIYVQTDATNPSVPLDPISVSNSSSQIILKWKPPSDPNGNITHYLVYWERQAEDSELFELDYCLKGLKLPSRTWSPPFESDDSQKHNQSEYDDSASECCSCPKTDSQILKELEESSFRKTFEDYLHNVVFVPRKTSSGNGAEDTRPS
Experimental: To elucidate further the mechanism of action of pervanadate, this compound was added in vitro to solubilized WGA-purified adipocyte insulin receptors.
Isolated rat adipocytes were incubated with different concentrations of pervanadate (10^-3 to 10^-7 M), 10 ng/mL (1.7×10^-9 M) insulin, or no additions for 15 min at 37° C. Insulin receptors were solubilized and partially purified by WGA chromatography. […] An aliquot of insulin receptor (5-10 fmol of insulin binding) was used in the autophosphorylation assay as described below, in the presence or absence of in vitro insulin, followed by SDS-PAGE and radioautography.
The Insulin Receptor Autophosphorylation Assay proceeded as follows: lectin-purified insulin receptor (5-10 fmol of insulin binding) was incubated with or without 10^-7 M insulin in a 50 mM HEPES buffer containing 8 mM MnCl2, 10 mM MgCl2, 270 μM dithiothreitol, and 10 μg/mL bovine serum albumin for 1 h at 4° C., in a total volume of 90 μL. The phosphorylation reaction was initiated by the addition of 10 μL of diluted [γ^-32 P]ATP (10 Ci/mmol) to a final concentration of 50 μM, and the reaction mixture was further incubated for 15 min at 4° C. […]

[6] = stability of the pervanadate solution; format: physicochemical; details: after catalase 200 μg/mL to remove residual H2 O2
Experimental: The vanadate solution used in the examples presented below was prepared as described in Kadota et al. supra, to avoid changes in pH and the generation of colored decavanadate (orange-yellow) or vanadyl ion, VO^2+ (blue). The solution of pervanadate was prepared by mixing vanadate or vanadate containing substance with H2 O2 or a peroxide-containing substance (10^-3 M unless otherwise indicated) for 15 min at 22° C. This was followed by the addition of catalase, 200 μg/mL, to remove residual H2 O2. […] The concentration of pervanadate generated is denoted by the vanadate concentration added to the mixture.

[7] = system: tyrosine phosphatases; details: cited from earlier work
[8] = increasing concentrations, 15 units/mL alkaline phosphatase, 60 min, 4° C., SDS-PAGE, radioautography

| Compound | in situ tyrosine phosphorylation of the insulin receptor [1] | activation of the insulin receptor kinase ([1]; time course versus insulin) | inhibition of insulin receptor tyrosine dephosphorylation catalyzed by rat hepatocyte phosphotyrosine phosphatase ([2]; 10^-4 M, 20 min, 30° C.) | inhibition of alkaline phosphatase-catalyzed dephosphorylation of 32P-labeled insulin receptor β-subunit [3, 8] | stimulation of autophosphorylation of exogenous tyrosine kinase activity [4] | stimulation of insulin receptor autophosphorylation [5] | time the peroxidized form of vanadate is stable without further addition of H2 O2 [6] | inhibition of insulin receptor tyrosine dephosphorylation catalyzed by rat hepatocyte phosphotyrosine phosphatase [2] | inhibition of alkaline phosphatase-catalyzed dephosphorylation of 32P-labeled insulin receptor β-subunit ([3]; 10^-3 M alone) | inhibition of tyrosine phosphatases [7] |
| --- | --- | --- | --- | --- | --- | --- | --- | --- | --- | --- |
| pervanadate | maximal effects similar to that of insulin | activates the insulin receptor kinase but with a slower time course than insulin | powerfully inhibited tyrosine dephosphorylation; also recorded: potent inhibitor; also recorded: more efficacious than vanadate | much less than that by vanadate alone; also recorded: does not inhibit | does not either stimulate | did not significantly stimulate autophosphorylation | 2 h | – | – | – |
| OO [H2 O2, hydrogen peroxide, reference compound] | – | – | – | – | – | – | – | without effect | without effect | – |
| [O]=[V]([O-])([O-])[O-] [vanadate] | – | – | inhibited dephosphorylation but with less efficacy | inhibited the dephosphorylation of the ^32 P-labeled insulin receptor in a dose- dependent manner | – | – | – | – | – | inhibit tyrosine phosphatases |
